Test results taken from patent US10442804B2, “Compounds for the treatment of hepatitis B virus infection” (Gilead Sciences, Inc., priority 2017, dated 2019).
Like-named read-outs stand apart in the source and are kept apart here.

Assays:
[1] = test system: HBV-infected NTCP-HepG2 cells, secreted HBsAg; assay: microbe, parasite or virus in culture; assay type: cell-based, hepatitis B virus (genotype D, AD38-derived); settings: secreted HBsAg in supernatant after 5 days, geometric mean of minimum four determinations, read-out: NTCP HBsAg EC50
Outline: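 NTCP-HepG2 cells were infected with genotype D HBV at 4000 genome equivalents/cell, then seeded 4 days post-infection with serially diluted compounds (1% DMSO) for 5 days. Supernatant HBsAg was measured by chemiluminescent MSD immunoassay. EC50 from four-parameter fit, geometric mean of ≥4 determinations.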

MT-4 cytotoxicity assay = assay type: cell-based, human; settings: human
[2] = five days, Cell Titer Glo luminescence, read-out: MT-4 CC50

SMILES	EC50 ([1]; Hepatitis B virus, 120 h)	CC50 at 5 days (MT-4 cytotoxicity assay; [2])	EC50 [1]	CC50 at 5 days (MT-4 cytotoxicity assay; MT-4 CC50)
COC(C)(C)C#Cc1cc2c(cc1C1CC1)-c1cc(=O)c(C(=O)O)cn1N1[C@@H]2CCC1(C)C [Example 72, (R)-11-cyclopropyl-12-(3-methoxy-3-methylbut-1-yn-1-yl)-3,3-dimethyl-8-oxo-2,3,8,13b-tetrahydro-1H-pyrido[2,1-a]pyrrolo[1,2-c]phthalazine-7-carboxylic acid]	0.00095 µM	6.4 µM		
COCCCOc1cc2c(cc1Cl)-c1cc(=O)c(C(=O)O)cn1N1[C@@H]2CCCC1(C)C (single isomer, unassigned) [Example 12]	0.0025 µM	8.8 µM		
COc1cc2c(cc1OCC1CC(F)(F)C1)[C@H]1CCC(C)(C)N1n1cc(C(=O)O)c(=O)cc1-2 [Example 50, (R)-12-((3,3-difluorocyclobutyl)methoxy)-11-methoxy-3,3-dimethyl-8-oxo-2,3,8,13b-tetrahydro-1H-pyrido[2,1-a]pyrrolo[1,2-c]phthalazine-7-carboxylic acid]	0.001 µM	> 10 µM		
COc1cc2c(cc1OCCC(C)(C)OC)[C@H]1CCC(C)(C)N1n1cc(C(=O)O)c(=O)cc1-2 [Example 64, (R)-11-methoxy-12-(3-methoxy-3-methylbutoxy)-3,3-dimethyl-8-oxo-2,3,8,13b-tetrahydro-1H-pyrido[2,1-a]pyrrolo[1,2-c]phthalazine-7-carboxylic acid]	0.00084 µM	> 10 µM		
COCCCOc1cc2c(cc1Cl)-c1cc(=O)c(C(=O)O)cn1N1CCC[C@H]21 (single isomer, unassigned) [Example 2]	0.11 µM	3.9 µM		
COCCCOc1cc2c(cc1Cl)-c1cc(=O)c(C(=O)O)cn1N1C2CCCC1(C)C (stereo not shown) [Example 11, 13-chloro-12-(3-methoxypropoxy)-7,7-dimethyl-2-oxo-2,7,8,9,10,10a-hexahydrodipyrido[2,1-a:1′,2′-c]phthalazine-3-carboxylic acid]	0.0043 µM	> 10 µM		
COCCCOc1cc2c(cc1OCCCOC)[C@@H]1CCC(C)(C)N1n1cc(C(=O)O)c(=O)cc1-2 [Example 24, (S)-11,12-bis(3-methoxypropoxy)-3,3-dimethyl-8-oxo-2,3,8,13b-tetrahydro-1H-pyrido[2,1-a]pyrrolo[1,2-c]phthalazine-7-carboxylic acid]	> 1 µM	> 10 µM		
COC(C)(C)C#Cc1cc2c(cc1OC(F)(F)F)-c1cc(=O)c(C(=O)O)cn1N1[C@@H]2CCC1(C)C [Example 90, (R)-12-(3-methoxy-3-methylbut-1-yn-1-yl)-3,3-dimethyl-8-oxo-11-(trifluoromethoxy)-2,3,8,13b-tetrahydro-1H-pyrido[2,1-a]pyrrolo[1,2-c]phthalazine-7-carboxylic acid]	0.005 µM	> 10 µM		
COCCCOc1cc2c(cc1Cl)-c1cc(=O)c(C(=O)O)cn1[C@H]1[C@H]2CCC1(C)C (racemic) [Example 31, trans-10-Chloro-11-(3-methoxypropoxy)-3,3-dimethyl-7-oxo-1,2,3,3a,7,12b-hexahydrocyclopenta[c]pyrido[2,1-a]isoquinoline-6-carboxylic acid]		> 10 µM	0.0064 µM	
COCCCOc1cc2c(cc1Cl)-c1cc(=O)c(C(=O)O)cn1N1[C@@H]2CCC12COC2 [Example 82, (R)-11′-chloro-12′-(3-methoxypropoxy)-8′-oxo-1′,2′,8′,13b′-tetrahydrospiro[oxetane-3,3′-pyrido[2,1-a]pyrrolo[1,2-c]phthalazine]-7′-carboxylic acid]	0.072 µM			> 10 µM
COCc1cc2c(cc1C#CC(C)(C)OC)[C@H]1CCC(C)(C)N1n1cc(C(=O)O)c(=O)cc1-2 [Example 97, (R)-12-(3-methoxy-3-methylbut-1-yn-1-yl)-11-(methoxymethyl)-3,3-dimethyl-8-oxo-2,3,8,13b-tetrahydro-1H-pyrido[2,1-a]pyrrolo[1,2-c]phthalazine-7-carboxylic acid]	0.0086 µM	> 10 µM		
COCCCOc1cc2c(cc1COC)-c1cc(=O)c(C(=O)O)cn1N1[C@@H]2COCC12CCC2 [Compound 114, (S)-12′-(methoxymethyl)-13′-(3-methoxypropoxy)-9′-oxo-9′,14b′-dihydro-1′H,3′H-spiro[cyclobutane-1,4′-[1,4]oxazino[3,4-a]pyrido[1,2-c]phthalazine]-8′-carboxylic acid]	0.0676 µM			> 10 µM
COCCCOc1cc2c(cc1Cl)-c1cc(=O)c(C(=O)O)cn1[C@@H]1[C@@H]2CCC1(C)C (single isomer, unassigned) [Example 36]	0.17 µM	> 10 µM		
CC1(C)CC[C@@H]2c3cc(OCCn4nc5ccccn5c4=O)c(C4CC4)cc3-c3cc(=O)c(C(=O)O)cn3N21 [Example 96, (R)-11-cyclopropyl-3,3-dimethyl-8-oxo-12-(2-(3-oxo-[1,2,4]triazolo[4,3-a]pyridin-2(3H)-yl)ethoxy)-2,3,8,13b-tetrahydro-1H-pyrido[2,1-a]pyrrolo[1,2-c]phthalazine-7-carboxylic acid]	0.00017 µM	> 10 µM		
COCc1cc2c(cc1OCCCO)[C@H]1CCC(C)(C)N1n1cc(C(=O)O)c(=O)cc1-2 [Compound 111, (R)-12-(3-hydroxypropoxy)-11-(methoxymethyl)-3,3-dimethyl-8-oxo-2,3,8,13b-tetrahydro-1H-pyrido[2,1-a]pyrrolo[1,2-c]phthalazine-7-carboxylic acid]	0.0322 µM	> 10 µM		
COCCCOc1cc2c(cc1OC(F)(F)F)-c1cc(=O)c(C(=O)O)cn1N1[C@@H]2CCC1(C)C [Example 79, (R)-12-(3-methoxypropoxy)-3,3-dimethyl-8-oxo-11-(trifluoromethoxy)-2,3,8,13b-tetrahydro-1H-pyrido[2,1-a]pyrrolo[1,2-c]phthalazine-7-carboxylic acid]	0.0011 µM	> 10 µM		
COCCCOc1cc2c(cc1Cl)-c1cc(=O)c(C(=O)O)cn1N1CCC(C)(C)[C@@H]21 (single isomer, unassigned) [Example 48]	> 1 µM	2.2 µM		
COCc1cc2c(cc1OCCCOC(=O)NC1(C(F)F)CC1)[C@H]1CCC(C)(C)N1n1cc(C(=O)O)c(=O)cc1-2 [Example 88, (R)-12-(3-(((1-(Difluoromethyl)cyclopropyl)carbamoyl)oxy)propoxy)-11-(methoxymethyl)-3,3-dimethyl-8-oxo-2,3,8,13b-tetrahydro-H-pyrido[2,1-a]pyrrolo[1,2-c]phthalazine-7-carboxylic acid]	0.0054 µM	> 10 µM		
CC1(C)CC[C@@H]2c3cc(C#CC(C)(C)S(C)(=O)=O)c(OC(F)(F)F)cc3-c3cc(=O)c(C(=O)O)cn3N21 [Example 89, (R)-3,3-dimethyl-12-(3-methyl-3-(methylsulfonyl)but-1-yn-1-yl)-8-oxo-11-(trifluoromethoxy)-2,3,8,13b-tetrahydro-1H-pyrido[2,1-a]pyrrolo[1,2-c]phthalazine-7-carboxylic acid]	0.0137 µM	> 10 µM		
COCCCOc1cc2c(cc1OC)-c1cc(=O)c(C(=O)O)cn1N1[C@@H]2CCC1(C)C [Example 14, (R)-11-methoxy-12-(3-methoxypropoxy)-3,3-dimethyl-8-oxo-2,3,8,13b-tetrahydro-1H-pyrido[2,1-a]pyrrolo[1,2-c]phthalazine-7-carboxylic acid]	0.0021 µM	> 10 µM		
